Measurements published in US9676859B2, “In vitro generation of dendritic cells by exposure to an anti-CSF1-R antibody” (TRANSGENE SA, priority 2012, dated 2017).

What was measured:
[1] = test system: differentiating macrophages; assay: Human macrophage differentiation assay: microscopical observation and cell counts of day-6 cultures (cytotoxicity); assay type: cell-based; conditions: for Microscopical observation of day-6 cultures (cytotoxicity), compared with untreated cells: all doses evaluated (mAbs 0.1, 1, 10 μg/ml, F(ab′)2 0.066, 0.66, 6.6 μg/ml), all donors
From the text: Cells were counted following a 6-day culture of monocyte, or precursors thereof, s with GM-CSF and CSF-1, in the presence or absence of anti-CD115 mAbs or F(ab′)2 or with GW2580. Controls included cultures treated with rituximab or rituximab F(ab′)2, or without any added compound.
Buffy coats were provided by the Etablissement Français du Sang (EFS, Strasbourg). Peripheral blood mononucleated cells (PBMC) were obtained by centrifugation on a ficoll gradient. Monocytes were purified by immunomagnetic cell sorting, using CD14-antibody-coated beads (Miltenyii). […] Monocytes were differentiated for 6 days in 48-well plates (3×10^5 cells/well) in RPMI-Glutamax™ medium supplemented with 10% heat inactivated fetal calf serum and 1% tri-antibiotic mixture (penicillin, streptomycin, neomycin). GM-CSF (10 ng/ml) was added in the cell culture medium from day 0 to day 3. H27K15, other antibodies or internal control GW2580 (LC Labs) were added at day 0. On day 3 post-isolation, monocytes were washed with PBS and further cultivated in medium supplemented with CSF-1 (10 ng/ml) and GM-CSF (2 ng/ml), in the presence or absence of antibodies or GW2580. On day 6, supernatants were collected and stored at −20° C. Cells were detached from the plastic and pools of triplicates were analyzed by IC/FC (immunocytochemistry/flow cytometry) for cell sizes and expression of FcγR and CD86. Cytokines and chemokines were quantified in the culture supernatants by multiplex (Bioplex, Bio-Rad) or by ELISA.
Three different doses of mab H27K15 or isotype control rituximab (0.1; 1 or 10 μg/ml) were added to the culture medium at the beginning of the culture and again 3 days later. F(ab′)2 generated from H27K15 or from rituximab were tested in parallel at equivalent molar concentrations.
Cell viability was analyzed at day 6 by counting 5 microscope fields in each well of the plate (one in the center of the well and four fields at mid-distance between the center and the side of the well).

[2] = test system: IL-12p70; assay: IL-12p70 titration in day-6 macrophage culture supernatants; assay type: cell-based, human; conditions: day-6 supernatants, 3 blood donors, GW2580 1 μM; for IL-12p70 secretion: mAbs 1 μg/ml, detection limit 11 pg/ml
Description: (§1) IL-12p70 and IL-10 were titrated in the culture supernatants from day-6 macrophages differentiated in the presence of mAb H27K15 (1 μg/ml), GW2580 (1 μM) or their respective negative controls rituximab or no treatment. Left panel: IL-12p70 and IL-10 levels […] in macrophage cultures from 3 blood donors. Right: IL-12p70 […]/IL-10 […] ratios were calculated for each blood donor and each culture condition. In samples where IL-12p70 was undetectable (below the detection limit of 11 pg/m)l, its level was arbitrarily set at 1 pg/ml for the calculation of IL-12p70/IL-10 ratios.
(§2) Buffy coats were provided by the Etablissement Français du Sang (EFS, Strasbourg). Peripheral blood mononucleated cells (PBMC) were obtained by centrifugation on a ficoll gradient. Monocytes were purified by immunomagnetic cell sorting, using CD14-antibody-coated beads (Miltenyii). Enriched monocyte suspensions were more than 95% pure. Monocytes were differentiated for 6 days in 48-well plates (3×10^5 cells/well) in RPMI-Glutamax™ medium supplemented with 10% heat inactivated fetal calf serum and 1% tri-antibiotic mixture (penicillin, streptomycin, neomycin). GM-CSF (10 ng/ml) was added in the cell culture medium from day 0 to day 3. H27K15, other antibodies or internal control GW2580 (LC Labs) were added at day 0. On day 3 post-isolation, monocytes were washed with PBS and further cultivated in medium supplemented with CSF-1 (10 ng/ml) and GM-CSF (2 ng/ml), in the presence or absence of antibodies or GW2580. On day 6, supernatants were collected and stored at −20° C. Cells were detached from the plastic and pools of triplicates were analyzed by IC/FC (immunocytochemistry/flow cytometry) for cell sizes and expression of FcγR and CD86. Cytokines and chemokines were quantified in the culture supernatants by multiplex (Bioplex, Bio-Rad) or by ELISA.
IL-12p70 and IL-10 were titrated in day-6 culture supernatants.

[3] = test system: IL-10; assay: IL-10 titration in day-6 macrophage culture supernatants; assay type: cell-based, human; conditions: day-6 supernatants; GW2580 1 μM
Description: as §1
Buffy coats were provided by the Etablissement Français du Sang (EFS, Strasbourg). Peripheral blood mononucleated cells (PBMC) were obtained by centrifugation on a ficoll gradient. Monocytes were purified by immunomagnetic cell sorting, using CD14-antibody-coated beads (Miltenyii). Enriched monocyte suspensions were more than 95% pure. […] Cells were detached from the plastic and pools of triplicates were analyzed by IC/FC (immunocytochemistry/flow cytometry) for cell sizes and expression of FcγR and CD86. Cytokines and chemokines were quantified in the culture supernatants by multiplex (Bioplex, Bio-Rad) or by ELISA. […]

[4] = test system: MCP-1/CCL2; assay: MCP-1/CCL2 titration in day-6 macrophage culture supernatants; assay type: cell-based, human; conditions: day-6 supernatants; H27K15 1 μg/ml, GW2580 1 μM
Description: MCP-1 and IL-6 were titrated in the culture supernatants from day-6 macrophages differentiated in the presence of mAb H27K15 (1 μg/ml), GW2580 (1 μM) or their respective negative controls rituximab or no treatment. Percentages of reduction in MCP-1 (upper panel) or in IL-6 production (lower panel) were calculated for the 3 blood donors as: 100−[100×cytokine concentration with test compound (pg/ml)/cytokine concentration with control (pg/ml)].
as §2, with “H27K15, other antibodies or internal control GW2580 (LC Labs) were added at day 0. On day 3 post-isolation, monocytes were washed with PBS and further cultivated in medium supplemented with CSF-1 (10 ng/ml) and GM-CSF (2 ng/ml), in the presence or absence of antibodies or GW2580. On day 6, supernatants were collected and stored at −20° C.” left out, “ELISA. […]” for “ELISA.”

[5] = test system: CD163+ M2-type macrophages; assay: Flow cytometry of CD163-positive M2-type macrophages in day-6 cultures; assay type: cell-based, human; conditions: day-6 cultures with GM-CSF and CSF-1; 3 donors
Description: Cells obtained after 6-day culture with GM-CSF and CSF-1 were harvested and incubated for 20 min at 4° C. with PBS containing human IgG Fc fragments to saturate Fc receptors. Fluorochrome-conjugated mAbs (anti-CD14-PerCP-Cy5.5, anti-CD163-PE, anti-CD206-APC, anti-CD1a-FITC, BD Biosciences) were then incubated with each sample for 20 min at 4° C. FCM analysis was performed using a FACS LSR-II (BD biosciences) with the DIVA software. Data from 3 different blood donors are presented.
The surface expression of CD163 was analyzed by flow cytometry in day-6 macrophages derived from human monocytes cultured with GM-CSF and CSF-1. […] Culture with mAb H27K15 inhibited the differentiation of the CD163^+ macrophage population in all 3 donors tested. In the presence of 1 μg/ml H27K15, percentages of CD163-positive cells decreased from 2.5 to 4 folds compared with control cultures treated with rituximab.

[6] = test system: CD64 (FcγRI); assay: Surface expression of CD64 on day-6 macrophages by IC/FC; assay type: cell-based, human; conditions: GW2580 1 μM vs no treatment
Description: Macrophages obtained following a 6-day culture of monocyte, or precursors thereof from 3 different blood donors with GM-CSF and CSF-1 were analyzed by IC/FC for surface expression of CD64. Upper panels: CD64 staining in cultures from donor 1 treated with monoclonal antibody H27K15 (left, bold line) or with GW2580 (right, bold line) or their respective negative controls rituximab (left, thin line) or no treatment (right, thin line). Lower panel: Medians of fluorescence intensities in macrophage cultures treated with test compounds at 10, 1 or 0.1 μg/ml* were compared with those in the corresponding negative controls: H27K15 vs rituximab, H27K15-derived F(ab′)2 vs rituximab-derived F(ab′)2, mAbs 2-4A5 or 9-4D2 vs rat IgG1, GW2580 vs no treatment. Percentages of reduction in CD64 expression were calculated as: 100−[100×Median fluorescence intensity with test compound/Median fluorescence intensity with control]. […]
(§3) Buffy coats were provided by the Etablissement Français du Sang (EFS, Strasbourg). […] Cells were detached from the plastic and pools of triplicates were analyzed by IC/FC (immunocytochemistry/flow cytometry) for cell sizes and expression of FcγR and CD86. Cytokines and chemokines were quantified in the culture supernatants by multiplex (Bioplex, Bio-Rad) or by ELISA. […]

[7] = test system: CD86; assay: Induction of CD86bright SSClow macrophage population by IC/FC; assay type: cell-based, human; conditions: day-6 macrophages; mAb 10, 1, 0.1 μg/ml, F(ab′)2 equimolar, GW2580 1 μM
Description: Upper panels: Dot plots showing CD86 staining (x-axis) and side scatter (SSC, y-axis) of macrophages from donor 3 differentiated for 6 days in the presence of H27K15 (left) or negative control rituximab (right). A gate was set on the CD86^bright SSC^low cell population induced by H27K15. Lower panel: Percentages of CD86^bright SSC^low cells with the test compounds at 10, 1 or 0.1 μg/ml* were compared with those in the corresponding negative controls: H27K15 vs rituximab, H27K15-derived F(ab′)2 vs rituximab-derived F(ab′)2, GW2580 vs no treatment. Percentages of increase in the CD86^bright SSC^low cell population were calculated as: 100×percentage of CD86^bright SSC^low cells with test compound/percentage of CD86^bright SSC^low cells with control. Shown are the mean percentages of increase in the CD86^bright SSC^low cell population from the 3 blood donors. *except for F(ab′)2: 6.6; 0.6; and 0.06 μg/ml.
as §3, with “Strasbourg). Peripheral blood mononucleated cells (PBMC) were obtained by centrifugation on a ficoll gradient.” for “Strasbourg).”

[8] = test system: MMP-9; assay: MMP-9 ELISA in day-6 supernatants of monocytes cultured with GM-CSF and CSF-1; assay type: cell-based, human; conditions: mAb 0.1, 1, 10 μg/ml, F(ab)′2 equimolar, effect in 2 out of 3 donors
Description: Monocytes isolated from 3 different blood donors were differentiated for 6 days in the presence of GM-CSF and CSF-1, with or without mAb H27K15, Rituximab or GW2580. MAb H27K15 or Rituximab (0.1, 1 or 10 μg/ml) or equimolar concentrations of F(ab)′2 derived from both mAbs were added to the cultures. MMP-9 was titrated by ELISA (R&D Systems) in day-6 culture supernatants.
CD14^+ monocytes from 3 different donors were allowed to differentiate in the presence of both GM-CSF and CSF-1, known to induce macrophage differentiation towards respectively the M1- and M2-types. MAb H27K15 or Rituximab (used as a negative control) were added to the cultures at 0.1, 1 or 10 μg/ml. Equimolar concentrations of F(ab)′2 derived from both mAbs were assayed in parallel. The tyrosine kinase inhibitor GW2580, previously shown to inhibit the CSF-1-dependent proliferation of human monocytes and the differentiation of murine macrophages in vitro was tested in the same assay. After 6 days of culture, MMP-9 concentrations were measured in the supernatants by ELISA (FIG. 6). […] Thus, mAb H27K15 is capable of decreasing MMP-9 secretion by differentiating M2 macrophages.

## Rituximab F(ab′)2: F(ab′)2 produced by pepsine digestion of rituximab, negative control
[1]
  Microscopical observation of day-6 cultures (cytotoxicity), compared with untreated cells: no obvious differences

## COc1ccc(COc2ccc(Cc3cnc(N)nc3N)cc2OC)cc1 [GW2580, reference compound]
[2]; H27K15 1 μg/ml, vs rituximab or no treatment
  IL-12p70/IL-10 ratios: increased
[2]
  IL-12p70 secretion: not detectable
[3]
  IL-10 production: inhibition
[1]; 1 μM
  macrophage number remained at day 6 compared with untreated cultures: approximately 70%
[1]; 1 μM, all blood donors
  Microscopical observation of day-6 cultures (cytotoxicity): relative cytotoxicity
[4]
  production of the chemokine MCP-1/CCL2: almost totally suppressed
[5]
  differentiation of the CD163+ macrophage population: same effect in only 2/3 donors
[6]
  surface expression of CD64: drastically reduced
[7]
  Induction of CD86bright SSClow cell sub-population: had appeared
[8]
  MMP-9 production: dose-dependent decrease

## Rituximab: human IgG1 isotype / negative control, obtained from Roche
[2]
  IL-12p70 secretion: did not produce any detectable IL-12p70
[1]
  Microscopical observation of day-6 cultures (cytotoxicity), compared with untreated cells: no obvious differences
